From patent US12721838B2 (Henry Ford Health System, priority 2020, dated 2026)
Values joined by “and” are separate entries in the source; they are usually repeats but may differ in a detail not shown here. Equal entries are not always repeated. Where two headings read alike, the source gives them in different places.

Experiments:
[1] = target: T1, luciferase (Renilla reniformis, UniProt P27652); test: Counter-screen with control luciferase-transfected HFF cells; assay type: cell-based
T1 construct: expressed in transfected cells; host or cells: human foreskin fibroblasts (HFF)
T1 sequence (P27652 1-311): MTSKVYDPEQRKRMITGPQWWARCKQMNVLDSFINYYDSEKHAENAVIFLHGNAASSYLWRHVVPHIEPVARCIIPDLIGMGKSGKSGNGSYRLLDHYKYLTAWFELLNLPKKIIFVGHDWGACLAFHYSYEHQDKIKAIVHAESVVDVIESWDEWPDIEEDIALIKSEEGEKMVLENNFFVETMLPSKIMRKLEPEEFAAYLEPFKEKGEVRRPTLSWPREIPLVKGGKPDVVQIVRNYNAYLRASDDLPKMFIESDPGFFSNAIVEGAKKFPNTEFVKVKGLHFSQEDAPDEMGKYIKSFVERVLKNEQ
Experimental: Human foreskin fibroblast cells (HFF) cells were transfected with a Trib2-Luciferase (Luc-Trib2) fusion construct. Cells were plated in 96-well tissue culture plates and treated with compounds (10 μM) for 24 hours. Luciferase activity was measured using an EnduRen™ Live cell substrate kit (commercially available from PROMEGA CORP.®, Madison, WI). […] For further development, selected compounds were counter-screened with control luciferase-transfected HFF cells.
The main hurdle to develop agents to inhibit Trib2 is the lack of a quick and easy assay procedure to effectively screen large number of compounds. To overcome this problem, the present disclosure provides a design for a new assay system to measure the active state of Trib2 protein. The present disclosure describes a Trib2-luciferase gene construct by combining the full length human Trib2 gene with the luciferase gene from Renilla. Destabilization of the three-dimensional conformation of the resultant Trib2-luc fusion protein can deliver reportable outcome via alteration in the enzymatic activity of luciferase. A second screen was designed to eliminate compounds that affects the activity of only luciferase. […] Thus, the luciferase-based assay system (involving first screen and a counter-screen) of the present disclosure emerges as an effective way to identify Trib2-targeting drugs using simple gene transfected cell lines in culture.
Here, the screening strategy used to select compounds based on inhibition of luciferase activity in Trib2-Luc cells, but not in Luc cells. Compounds screened included a representative set of 104 FDA-approved compounds on Trib2-Luciferase fusion construct-transfected HFF cells are shown here. Cells were treated with compounds (10 μM) for 24 hours and measured luciferase activity using a kit from Promega Corp. (Madison, WI). For further development selected compounds are counter-screened with control luciferase-transfected HFF cells.

[2] = system: LNCaP-ENR cells; test: Soft-agar colony formation assay; assay type: cell-based, human; settings: LNCaP-ENR (ERPC) cells, three weeks; DCV at 8 μM
Experimental: Effect of DCV on soft-agar colony formation was also analyzed. LNCaP-ENR cells (10,000 per well in 6-well plates) were plated in 0.3% soft-agar on top of a base layer of 0.6% agar. The cells were treated with DCV and incubated at 37° C. for three weeks in the CO2 incubator. Cells were given fresh media and drug every fourth day. At the end of the incubation period, colonies were stained with 0.025% crystal violet, and pictures of colonies were taken with a Nikon digital camera at ×200. Image processing was done using Q-Capture Pro-7 software. Exemplary methods of the foregoing technique can be found in Sarveswaran, Sivalokanathan et al. “Inhibition of 5-lipoxygenase downregulates stemness and kills prostate cancer stem cells by triggering apoptosis via activation of c-Jun N-terminal kinase.” Oncotarget vol. 10, 4 424-436. 11 Jan. 2019, the disclosure of which is incorporated herein by reference in its entirety.

[3] = system: LNCaP-ENR and MR49F ERPC cells; test: In vitro invasion through extracellular matrix; assay type: cell-based, human; settings: LNCaP-ENR and MR49F ERPC cells (data not shown)
[4] = system: LNCaP-ENR cells; test: Apoptosis by Annexin V binding, flow cytometry; assay type: cell-based, human; settings: LNCaP-ENR cells, 8 μM, 24 hours, flow cytometry
Experimental: To test DCV effects on cancer cell apoptosis, LNCaP-ENR cells were treated with 8 μM DCV for 24 hours and analyzed by flow cytometry. Treatment with DCV indicated increased Annexin V binding, a read-out for apoptosis (FIG. 3C).

[5] = system: LNCaP-ENR cells; test: Cell cycle distribution; assay type: cell-based, human; settings: ERPC cells; FIG. 16 at 8 μM
[6] = system: ERPC cells; test: DNA degradation assay; assay type: cell-based, human
From the text: FIG. 17 depicts a graph showing the apoptotic effects of DCV as measured by DNA degradation assay.

[7] = system: Trib2-OE cells; test: Enzalutamide sensitivity of Trib2-overexpressing prostate cancer cells; assay type: cell-based, human; settings: Trib2-OE cells, DCV 6 μM
From the text: Prostate cancer cells were transfected with full length human gene to overexpress Trib2 (FIG. 18). […] Trib2 siRNA was used in parallel experiments as a positive control.

[8] = system: NCI-H226, SK-MES-1, NCI-H2228 and NCI-H596 lung cancer cell lines; test: 72-hour cell viability assay in lung cancer cell lines; assay type: cell-based, human
[9] = system: normal, non-cancer cells; test: Effects on normal, non-cancer cells; assay type: cell-based; settings: same experimental conditions as ERPC cells
[10] = cited from earlier work
[11] = cited from earlier work; remark: listed apart in the source
[12] = target: p-glycoprotein (PGP) (Homo sapiens, UniProt P08183); settings: cited from earlier work
p-glycoprotein (PGP), sequence (P08183 whole entry): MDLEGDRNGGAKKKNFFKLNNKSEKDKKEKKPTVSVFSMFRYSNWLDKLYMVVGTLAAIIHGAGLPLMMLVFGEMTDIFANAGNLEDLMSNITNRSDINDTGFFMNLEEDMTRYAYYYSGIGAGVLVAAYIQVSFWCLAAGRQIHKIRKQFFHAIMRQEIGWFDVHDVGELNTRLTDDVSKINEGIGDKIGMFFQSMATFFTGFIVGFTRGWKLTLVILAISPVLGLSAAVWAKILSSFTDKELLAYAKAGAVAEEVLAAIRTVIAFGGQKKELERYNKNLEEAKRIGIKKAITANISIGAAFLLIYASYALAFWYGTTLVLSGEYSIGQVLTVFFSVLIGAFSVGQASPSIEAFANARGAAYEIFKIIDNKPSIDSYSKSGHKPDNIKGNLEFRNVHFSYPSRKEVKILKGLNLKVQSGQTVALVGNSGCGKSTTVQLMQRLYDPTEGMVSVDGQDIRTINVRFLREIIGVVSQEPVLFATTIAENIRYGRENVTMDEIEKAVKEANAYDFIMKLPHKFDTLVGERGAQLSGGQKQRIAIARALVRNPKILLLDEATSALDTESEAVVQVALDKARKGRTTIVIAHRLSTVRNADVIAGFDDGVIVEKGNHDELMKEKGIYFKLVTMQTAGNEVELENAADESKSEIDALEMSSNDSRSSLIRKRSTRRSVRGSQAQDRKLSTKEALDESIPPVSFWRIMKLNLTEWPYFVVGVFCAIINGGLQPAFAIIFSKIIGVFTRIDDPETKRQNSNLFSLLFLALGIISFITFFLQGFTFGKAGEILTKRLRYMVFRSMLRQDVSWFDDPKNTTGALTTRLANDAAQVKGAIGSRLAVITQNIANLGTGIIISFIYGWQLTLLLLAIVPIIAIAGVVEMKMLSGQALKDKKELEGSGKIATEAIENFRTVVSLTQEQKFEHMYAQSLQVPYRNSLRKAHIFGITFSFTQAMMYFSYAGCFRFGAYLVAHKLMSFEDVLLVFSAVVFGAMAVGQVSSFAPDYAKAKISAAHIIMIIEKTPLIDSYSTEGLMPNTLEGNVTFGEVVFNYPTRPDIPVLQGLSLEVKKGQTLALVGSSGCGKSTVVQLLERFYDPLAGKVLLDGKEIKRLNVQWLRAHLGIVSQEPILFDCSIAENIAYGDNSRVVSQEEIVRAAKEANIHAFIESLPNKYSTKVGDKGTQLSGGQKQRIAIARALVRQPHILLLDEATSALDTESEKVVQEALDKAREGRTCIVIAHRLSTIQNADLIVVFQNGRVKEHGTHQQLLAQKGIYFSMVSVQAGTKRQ

COC(=O)N[C@H](C(=O)N1CCC[C@H]1c1nc(-c2ccc(-c3ccc(-c4c[nH]c([C@@H]5CCCN5C(=O)[C@@H](NC(=O)OC)C(C)C)n4)cc3)cc2)c[nH]1)C(C)C [Daclatasvir, 4,4′-bis[2-((2S)-1-{(2S)-2-[(methoxycarbonyl)amino]-3-methylbutanoyl}-2-pyrrolidinyl)-1H-imidazol-4-yl]-1,1′-biphenyl]
inhibition of control luciferase activity (counter-screen, without Trib2) [1]: passed counter-screen tests | inhibition of control luciferase activity (counter-screen, without Trib2) ([1]; listed as DCV): does not inhibit control luciferase activity | inhibition of control luciferase activity (counter-screen, without Trib2) ([1]; listed as daclatasvir): does not inhibit luciferase activity in the absence of Trib2 | soft-agar colony formation [2]: completely blocked | in vitro invasion through extracellular matrix [3]: dramatically decreases | Annexin V binding [4]: increased | cell cycle progression [5]: arresting them at G0/G1 phase | degradation of chromatin DNA [6]: triggers degradation of chromatin DNA to nucleosomal fragments | re-sensitization of resistant cells to enzalutamide [7]: re-sensitizes resistant cells to enzalutamide | killing of lung cancer cells [8]: effectively kills | effects on normal, non-cancer cells [9]: minimal effects | uptake rate ([10]; delivered orally): about 67% | protein bound ([10]; in vivo): ~ 99% | half-life ([10]; mammalian hosts): about 15 hours | tolerability ([10]; mammalian hosts): very well tolerated | tolerability ([11]; 100 mg po daily): well tolerated | median peak plasma concentration ([11]; after one dose of 60 mg, listed as DCV): ~ 2 μg/ml and 2.5 μM | mean terminal half-life ([11]; in vivo): 12 to 15 h | time to peak plasma concentrations after dosing ([11]; in vivo): 1 to 2 h | time to steady state levels ([11]; in vivo): after three days of administration | action on p-glycoprotein (PGP) [12]: inhibitor
